Measurements taken from patent US20140011757A1, “NOVEL MACROLIDE DERIVATIVE” (MEIJI SEIKA PHARMA CO., LTD., priority 2011, published 2014).
≈ marks a conversion by molar mass, not a printed value. Where “and” joins values, the source holds several entries; their conditions need not be identical. Equal values may be shown once. Read-outs that look alike come from different tables or passages of the source.

Assays:
[1] = tested on: P. multocida; test: In vitro antibacterial activity, broth microdilution MIC (CLSI M31-A2); assay type: cell-based, Pasteurella multocida
Method: (§1) Hereinafter, a description is made of an evaluation method for the compound. The compound was measured for its in vitro antibacterial activity by a broth microdilution method in accordance with a CLSI method (formerly NCCLS method, […]-A2) (Performance Standards for Antimicrobial Disk and Dilution Susceptibility Tests for Bacteria Isolated from Animals; Approved Standard-Second Edition NCCLS […]-A2 Vol. 22 No. 6 2002). A medium used was BBL Mueller Hinton II broth supplemented with lysed horse blood and NAD. A test drug solution at each concentration level obtained by dissolving a test drug in ethanol and then diluting the resultant with the liquid medium described above was dispensed into a 96-well microplate, and a test bacterial strain was inoculated. After having been cultured in the presence of 5% CO2 at 37° C. for 20 to 24 hours, the test bacterial strain was visually observed for the presence or absence of its growth. A minimum drug concentration completely inhibiting the growth of the test bacterial strain was defined as a minimum inhibitory concentration (hereinafter, referred to as MIC). The compound obtained in the present invention was measured for its in vitro antibacterial activity by a broth microdilution method in accordance with a CLSI method (formerly NCCLS method, […]-A2) (Performance Standards for Antimicrobial Disk and Dilution Susceptibility Tests for Bacteria Isolated from Animals; Approved Standard-Second Edition NCCLS […]-A2 Vol. 22 No. 6 2002). A medium composition used in the measurement is shown below. […] The resultant test drug solution was further subjected to two-step dilution with the liquid medium described above to prepare a test drug solution at each concentration level. The thus prepared test drug solution at each concentration level was dispensed into a 96-well microplate at 100 μL/well, and a test bacterial strain was inoculated at about 5×10^4 CFU/well. After having been cultured in the presence of 5% CO2 at 37° C. for 20 to 24 hours, the test bacterial strain was visually observed for the presence or absence of its growth. A minimum drug concentration completely inhibiting the growth of the test bacterial strain was defined as a minimum inhibitory concentration (hereinafter, referred to as MIC). […] Saponin was dissolved with purified water. The solution was sterilized and then added to defibrinated horse blood.

[2] = tested on: A. pleuropneumoniae; test: as above; assay type: cell-based, Actinobacillus pleuropneumoniae
Method: as §1

[3] = tested on: M. haemolytica; test: as above; assay type: cell-based, Mannheimia haemolytica
Method: as §1

[4] = tested on: H. somni; test: as above; assay type: cell-based, Histophilus somni
Method: as §1

[5] = tested on: H. parasuis; test: as above; assay type: cell-based, Haemophilus parasuis
Method: as §1

[6] = tested on: main pathogens of bacterial respiratory tract infections in livestock animals such as cattle and swine; assay type: cell-based
[7] = Pasteurella multocida, ATCC43019, P. multocida (bovine) strain ATCC43019, read-out: MIC
[8] = Pasteurella multocida, ATCC43137, P. multocida (swine) strain ATCC43137, read-out: MIC
[9] = Pasteurella multocida, P. multocida (bovine) strain 11272, read-out: MIC
[10] = Pasteurella multocida, P. multocida (bovine) strain 11325-1, read-out: MIC
[11] = Pasteurella multocida, P. multocida (bovine) strain 11787-24, read-out: MIC
[12] = Pasteurella multocida, P. multocida (swine) strain 11587-3, read-out: MIC
[13] = Pasteurella multocida, P. multocida (swine) strain 11745-15, read-out: MIC
[14] = Actinobacillus pleuropneumoniae, A. pleuropneumoniae strain 10895-2, read-out: MIC
[15] = Actinobacillus pleuropneumoniae, A. pleuropneumoniae strain 11684-7, read-out: MIC
[16] = Actinobacillus pleuropneumoniae, A. pleuropneumoniae strain 11796-1, read-out: MIC
[17] = Actinobacillus pleuropneumoniae, A. pleuropneumoniae strain 11804-2, read-out: MIC
[18] = Actinobacillus pleuropneumoniae, ATCC27089, A. pleuropneumoniae strain ATCC27089, read-out: MIC
[19] = Mannheimia haemolytica, M. haemolytica strain 11443, read-out: MIC
[20] = Mannheimia haemolytica, M. haemolytica strain 11467-2, read-out: MIC
[21] = Histophilus somni, H. somni strain 11321, read-out: MIC
[22] = Histophilus somni, H. somni strain 11423-3, read-out: MIC
[23] = Glaesserella parasuis, H. parasuis strain 11510-1, read-out: MIC
[24] = Glaesserella parasuis, H. parasuis strain 11640-1, read-out: MIC

Molecule | MIC [1, 7] | MIC [1, 8] | MIC [1, 9] | MIC [1, 10] | MIC [1, 11] | MIC [1, 12] | MIC [1, 13] | MIC [2, 14] | MIC [2, 15] | MIC [2, 16] | MIC [2, 17] | MIC [2, 18] | MIC [3, 19] | MIC [3, 20] | MIC [4, 21] | MIC [4, 22] | MIC [5, 23] | MIC [5, 24] | also measured
CO[C@@H]1C(OC2O[C@@H](C)C(O)C(N(C)C)C2O)[C@@H](CC=O)C[C@@H](C)[C@@H](OC(C)=O)/C=C/[C@@H](N(C)CCCc2ccnc3ccccc23)[C@@H](O)C[C@@H](C)OC(=O)C[C@H]1OC(C)=O (stereo partly shown) [Compound of formula (I)] | 4 µg/mL | 4 µg/mL | 4 µg/mL | 2 µg/mL | 4 µg/mL | 4 µg/mL | 4 µg/mL | 4 µg/mL | 32 µg/mL | 4 µg/mL | 8 µg/mL | 4 µg/mL | 4 µg/mL | 4 µg/mL | 0.5 µg/mL | 1 µg/mL | 0.5 µg/mL | 4 µg/mL | MIC corresponding to an activity enhanced as compared to josamycin [6]: approximately 8 fold; MIC corresponding to an activity enhanced as compared to tulathromycin [6]: ≥ 4 fold; antibacterial activities as compared to the existing drugs [6]: remarkably strong antibacterial activities
CO[C@@H]1[C@@H](O[C@@H]2O[C@H](C)[C@@H](O[C@H]3C[C@@](C)(O)[C@@H](OC(=O)CC(C)C)[C@H](C)O3)[C@H](N(C)C)[C@H]2O)[C@@H](CC=O)C[C@@H](C)[C@@H](O)/C=C/C=C/C[C@@H](C)OC(=O)C[C@H]1OC(C)=O [JM, josamycin] | 64 µg/mL (≈ 77.3 µM) | 32 µg/mL (≈ 38.6 µM) | 16 µg/mL (≈ 19.3 µM) | 8 µg/mL (≈ 9.66 µM) | 32 µg/mL (≈ 38.6 µM) | 32 µg/mL (≈ 38.6 µM) | 32 µg/mL (≈ 38.6 µM) | 32 µg/mL (≈ 38.6 µM) | 64 µg/mL (≈ 77.3 µM) | 16 µg/mL (≈ 19.3 µM) | 8 µg/mL (≈ 9.66 µM) | 16 µg/mL (≈ 19.3 µM) | 16 µg/mL (≈ 19.3 µM) | 32 µg/mL (≈ 38.6 µM) | 2 µg/mL (≈ 2.42 µM) | 8 µg/mL (≈ 9.66 µM) | 8 µg/mL (≈ 9.66 µM) | 32 µg/mL (≈ 38.6 µM) | –
CC[C@H]1OC(=O)C[C@@H](O)[C@H](C)[C@@H](O[C@@H]2O[C@H](C)[C@@H](O[C@H]3C[C@@](C)(O)[C@@H](O)[C@H](C)O3)[C@H](N(C)C)[C@H]2O)[C@@H](CC=O)C[C@@H](C)C(=O)/C=C/C(C)=C/[C@@H]1CO[C@@H]1O[C@H](C)[C@@H](O)[C@@H](OC)[C@H]1OC [TS, tylosin] | 64 µg/mL (≈ 69.9 µM) | 64 µg/mL (≈ 69.9 µM) | 64 µg/mL (≈ 69.9 µM) | 16 µg/mL (≈ 17.5 µM) | 32 µg/mL (≈ 34.9 µM) | 64 µg/mL (≈ 69.9 µM) | 64 µg/mL (≈ 69.9 µM) | 16 µg/mL (≈ 17.5 µM) | 256 µg/mL (≈ 279 µM) | 32 µg/mL (≈ 34.9 µM) | 32 µg/mL (≈ 34.9 µM) | 32 µg/mL (≈ 34.9 µM) | 16 µg/mL (≈ 17.5 µM) | 128 µg/mL (≈ 140 µM) | 1 µg/mL (≈ 1.09 µM) | 4 µg/mL (≈ 4.37 µM) | 4 µg/mL (≈ 4.37 µM) | 8 µg/mL (≈ 8.73 µM) | –
aivlosin | – | – | – | – | – | – | – | – | – | – | – | – | – | – | – | – | – | – | MIC [1]: 256 µg/mL and 128 µg/mL; MIC [2]: 32 µg/mL and 64 µg/mL; MIC [3]: 32 µg/mL and 64 µg/mL; MIC [5]: 16 µg/mL and 32 µg/mL
CC[C@H]1OC(=O)C[C@@H](O)[C@H](C)[C@@H](O[C@@H]2O[C@H](C)[C@@H](O)[C@H](N(C)C)[C@H]2O)[C@@H](CCN2C[C@H](C)C[C@H](C)C2)C[C@@H](C)C(=O)/C=C/C(C)=C/[C@@H]1CO[C@@H]1O[C@H](C)[C@@H](O)[C@@H](OC)[C@H]1OC [TMS, tilmicosin] | 32 µg/mL (≈ 36.8 µM) | 16 µg/mL (≈ 18.4 µM) | 32 µg/mL (≈ 36.8 µM) | 16 µg/mL (≈ 18.4 µM) | 16 µg/mL (≈ 18.4 µM) | 16 µg/mL (≈ 18.4 µM) | 16 µg/mL (≈ 18.4 µM) | 16 µg/mL (≈ 18.4 µM) | 128 µg/mL (≈ 147 µM) | 16 µg/mL (≈ 18.4 µM) | 16 µg/mL (≈ 18.4 µM) | 16 µg/mL (≈ 18.4 µM) | 16 µg/mL (≈ 18.4 µM) | 8 µg/mL (≈ 9.2 µM) | 1 µg/mL (≈ 1.15 µM) | 4 µg/mL (≈ 4.6 µM) | 1 µg/mL (≈ 1.15 µM) | 16 µg/mL (≈ 18.4 µM) | –
CCCNC[C@]1(O)[C@H](C)O[C@@H](O[C@H]2[C@H](C)[C@@H](O[C@@H]3O[C@H](C)C[C@H](N(C)C)[C@H]3O)[C@](C)(O)C[C@@H](C)CN[C@H](C)[C@@H](O)[C@](C)(O)[C@@H](CC)OC(=O)[C@@H]2C)C[C@@]1(C)OC [TLM, tulathromycin] | – | – | – | – | – | – | – | – | – | – | – | – | – | – | – | – | – | – | MIC ([1]; P. multocida (bovine) strain 11272): 16 µg/mL (≈ 19.8 µM); MIC ([1]; P. multocida (bovine) strain 11325-1): 4 µg/mL (≈ 4.96 µM); MIC ([1]; P. multocida (bovine) strain 11787-24): 8 µg/mL (≈ 9.92 µM); MIC ([1]; P. multocida (bovine) strain ATCC43019): 16 µg/mL (≈ 19.8 µM); MIC ([1]; P. multocida (swine) strain 11587-3): 16 µg/mL (≈ 19.8 µM); MIC ([1]; P. multocida (swine) strain 11745-15): 8 µg/mL (≈ 9.92 µM); MIC ([1]; P. multocida (swine) strain ATCC43137): 16 µg/mL (≈ 19.8 µM); MIC ([2]; A. pleuropneumoniae strain 10895-2): 16 µg/mL (≈ 19.8 µM); MIC ([2]; A. pleuropneumoniae strain 11684-7): 64 µg/mL (≈ 79.4 µM); MIC ([2]; A. pleuropneumoniae strain 11796-1): 16 µg/mL (≈ 19.8 µM); MIC ([2]; A. pleuropneumoniae strain 11804-2): 16 µg/mL (≈ 19.8 µM); MIC ([2]; A. pleuropneumoniae strain ATCC27089): 32 µg/mL (≈ 39.7 µM); MIC ([3]; M. haemolytica strain 11443): 16 µg/mL (≈ 19.8 µM); MIC ([3]; M. haemolytica strain 11467-2): 32 µg/mL (≈ 39.7 µM); MIC ([4]; H. somni strain 11321): 1 µg/mL (≈ 1.24 µM); MIC ([4]; H. somni strain 11423-3): 1 µg/mL (≈ 1.24 µM); MIC ([5]; H. parasuis strain 11510-1): 4 µg/mL (≈ 4.96 µM); MIC ([5]; H. parasuis strain 11640-1): 8 µg/mL (≈ 9.92 µM)
